Measurements published in US10363257B2 (ZENITH EPIGENETICS LTD., priority 2013, dated 2019).

Key:
human AML MV-4-11 cells = test: Inhibition of cell proliferation in MV4-11 cells (CellTiter Aqueous One); assay type: cell-based; conditions: for IC50: MV4-11, 72 h
Procedure: MV4-11 cells: 96-well plates were seeded with 5×10^4 cells per well of exponentially growing human AML MV-4-11 (CRL-9591) cells and immediately treated with two-fold dilutions of test compounds, ranging from 30 μM to 0.2 μM. Triplicate wells were used for each concentration, as well as a media only and three DMSO control wells. The cells and compounds were incubated at 37° C., 5% CO2 for 72 h before adding 20 μL of the CellTiter Aqueous One Solution (Promega) to each well and incubating at 37° C., 5% CO2 for an additional 3-4 h. The absorbance was taken at 490 nm in a spectrophotometer and the percentage of proliferation relative to DMSO-treated cells was calculated after correction from the blank well. IC50 were calculated using the GraphPad Prism software.

[1] = molecular target: T1, Brd4 bromodomain 1 (BRD4(1)) (Homo sapiens, UniProt O60885); test: Inhibition of tetra-acetylated histone H4 binding to Brd4 bromodomain 1 (TR-FRET); conditions: tetra-acetylated histone H4 peptide, first bromodomain of Brd4
T1 construct: made in house; host or cells: E. coli BL21(DE3)
Procedure: Proteins were cloned and overexpressed with a N-terminal 6× His tag, then purified by nickel affinity followed by size exclusion chromatography. Briefly, E.coli BL21(DE3) cells were transformed with a recombinant expression vector encoding N-terminally Nickel affinity tagged bromodomains from Brd2, Brd3, Brd4. Cell cultures were incubated at 37° C. with shaking to the appropriate density and induced overnight with IPTG. The supernatant of lysed cells was loaded onto Ni-IDA column for purification. Eluted protein was pooled, concentrated and further purified by size exclusion chromatography. Fractions representing monomeric protein were pooled, concentrated, aliquoted, and frozen at −80° C. for use in subsequent experiments.
Binding of tetra-acetylated histone H4 and BET bromodomains was confirmed by a Time Resolved Fluorescence Resonance Energy Transfer (TR-FRET) method. N-terminally His-tagged bromodomains (200 nM) and biotinylated tetra-acetylated histone H4 peptide (25-50 nM, Millipore) were incubated in the presence of Europium Cryptate-labeled streptavidin (Cisbio Cat. #610SAKLB) and XL665-labeled monoclonal anti-His antibody (Cisbio Cat. #61HISXLB) in a white 96 well microtiter plate (Greiner). For inhibition assays, serially diluted test compound was added to these reactions in a 0.2% final concentration of DMSO. Final buffer concentrations were 30 mM HEPES pH 7.4, 30 mM NaCl, 0.3 mM CHAPS, 20 mM phosphate pH 7.0, 320 mM KF, 0.08% BSA). After a 2-h incubation at room temperature, the fluorescence by FRET was measured at 665 and 620 nm by a SynergyH4 plate reader (Biotek). The binding inhibitory activity was shown by a decrease in 665 nm fluorescence relative to 620 nm. IC50 values were determined from a dose response curve.

c-myc = test: Inhibition of c-myc expression (mRNA, real-time PCR) in MV4-11 cells; assay type: cell-based; conditions: Human AML MV4-11 cells, 3 h, cMYC mRNA
Procedure: MV4-11 cells (CRL-9591) were plated at a density of 2.5×10^4 cells per well in 96 well U-bottom plates and treated with increasing concentrations of test compound or DMSO (0.1%) in IMDM media containing 10% FBS and penicillin/streptomycin, and incubated for 3 h at 37° C. Triplicate wells were used for each concentration. Cells were pelleted by centrifugation and harvested using the mRNA Catcher PLUS kit according to manufacturer's instructions. The eluted mRNA isolated was then used in a one-step quantitative real-time PCR reaction, using components of the RNA UltraSense™ One-Step Kit (Life Technologies) together with Applied Biosystems TaqMan® primer-probes for cMYC and Cyclophilin. Real-time PCR plates were run on a VIaTM7 real time PCR machine (Applied Biosystems), data was analyzed, normalizing the Ct values for cMYC to an internal control, prior to determining the fold expression of each sample, relative to the control.

| IC50 (human AML MV-4-11 cells) | IC50 [1] | IC50 (c-myc) | SMILES | Cell Proliferation activity (human AML MV-4-11 cells; 72 h) |
| --- | --- | --- | --- | --- |
| 300 to 3000 nM | ≤ 300 nM | 300 to 3000 nM | Cc1noc(C)c1-c1cnc2nc(N3CCNCC3)n(Cc3ccccc3)c2c1 [compound 213, 4-(1-benzyl-2-(piperazin-1-yl)-1H-imidazo[4,5-b]pyridin-6-yl)-3,5-dimethylisoxazole] | – |
| 300 to 3000 nM | ≤ 300 nM | 300 to 3000 nM | Cc1noc(C)c1-c1cnc2nc(C)n(CC3CCC3)c2c1 [compound 193, 4-(1-(cyclobutylmethyl)-2-methyl-1H-imidazo[4,5-b]pyridin-6-yl)-3,5-dimethylisoxazole] | – |
| 300 to 3000 nM | 300 to 3000 nM | 300 to 3000 nM | Cn1nccc1-c1cnc2[nH]c(=O)n(Cc3ccccc3)c2c1 [compound 171, 1-benzyl-6-(1-methyl-1H-pyrazol-5-yl)-1H-imidazo[4,5-b]pyridin-2(3H)-one] | – |
| 300 to 3000 nM | ≤ 300 nM | 300 to 3000 nM | Cn1nccc1-c1cc(N)c2c(c1)n(Cc1ccccc1)c(=O)n2C [compound 199, 4-amino-1-benzyl-3-methyl-6-(1-methyl-1H-pyrazol-5-yl)-1H-benzo[d]imidazol-2(3H)-one] | – |
| 300 to 3000 nM | ≤ 300 nM | 300 to 3000 nM | CCc1nc2ncc(-c3c(C)noc3C)cc2n1Cc1ccccc1 [compound 128, 4-(1-benzyl-2-ethyl-1H-imidazo[4,5-b]pyridin-6-yl)-3,5-dimethylisoxazole] | – |
| 300 to 3000 nM | ≤ 300 nM | ≤ 300 nM | Cc1noc(C)c1-c1cc([N+](=O)[O-])c2nc(C)n([C@H](C)c3ccccc3)c2c1 [compound 126, (R)-3,5-dimethyl-4-(2-methyl-4-nitro-1-(1-phenylethyl)-1H-benzo[d]imidazol-6-yl)isoxazole] | – |
| 300 to 3000 nM | ≤ 300 nM | ≤ 300 nM | CCNc1nc2c([N+](=O)[O-])cc(-c3c(C)noc3C)cc2n1CC1CC1 [compound 159, 1-(cyclopropylmethyl)-6-(3,5-dimethylisoxazol-4-yl)-N-ethyl-4-nitro-1H-benzo[d]imidazol-2-amine] | – |
| 300 to 3000 nM | ≤ 300 nM | 300 to 3000 nM | CCNc1nc2c(N)cc(-c3c(C)noc3C)cc2n1CC1CC1 [compound 160, 1-(cyclopropylmethyl)-6-(3,5-dimethylisoxazol-4-yl)-N2-ethyl-1H-benzo[d]imidazole-2,4-diamine] | – |
| 300 to 3000 nM | ≤ 300 nM | 300 to 3000 nM | Cc1noc(C)c1-c1cc(S(C)(=O)=O)c2nc(C)n(Cc3ccccc3)c2c1 [compound 168, 4-(1-benzyl-2-methyl-4-(methylsulfonyl)-1H-benzo[d]imidazol-6-yl)-3,5-dimethylisoxazole] | – |
| ≤ 300 nM | ≤ 300 nM | ≤ 300 nM | COCCNc1nc2c(N)cc(-c3c(C)noc3C)cc2n1Cc1ccccc1 [compound 139, 1-benzyl-6-(3,5-dimethylisoxazol-4-yl)-N2-(2-methoxyethyl)-1H-benzo[d]imidazole-2,4-diamine] | – |
| 3000 to 30000 nM | ≤ 300 nM | 3000 to 30000 nM | Cc1noc(C)c1-c1cnc2[nH]c(=O)n(CC3CCC3)c2c1 [compound 203, 1-(cyclobutylmethyl)-6-(3,5-dimethylisoxazol-4-yl)-1H-imidazo[4,5-b]pyridin-2(3H)-one] | – |
| 3000 to 30000 nM | 300 to 3000 nM | 300 to 3000 nM | Cc1noc(C)c1Nc1cc(N)c2nc(C)n(Cc3ccccc3)c2c1 [compound 142, 1-benzyl-N6-(3,5-dimethylisoxazol-4-yl)-2-methyl-1H-benzo[d]imidazole-4,6-diamine] | – |
| 300 to 3000 nM | 300 to 3000 nM | 300 to 3000 nM | Cn1nccc1-c1cnc2nc(NC3CCOCC3)n(Cc3ccccc3)c2c1 [compound 176, 1-benzyl-6-(1-methyl-1H-pyrazol-5-yl)-N-(tetrahydro-2H-pyran-4-yl)-1H-imidazo[4,5-b]pyridin-2-amine] | – |
| 300 to 3000 nM | ≤ 300 nM | 300 to 3000 nM | Cc1noc(C)c1-c1cnc2nc(N3CCOCC3)n(CC3CCC3)c2c1 [compound 210, 4-(1-(cyclobutylmethyl)-6-(3,5-dimethylisoxazol-4-yl)-1H-imidazo[4,5-b]pyridin-2-yl)morpholine] | – |
| ≤ 300 nM | ≤ 300 nM | ≤ 300 nM | Cc1noc(C)c1-c1cnc2nc(NC3CCOCC3)n(CC3CCCC3)c2c1 [compound 222, 1-(cyclopentylmethyl)-6-(3,5-dimethylisoxazol-4-yl)-N-(tetrahydro-2H-pyran-4-yl)-1H-imidazo[4,5-b]pyridin-2-amine] | – |
| 300 to 3000 nM | ≤ 300 nM | ≤ 300 nM | Cc1noc(C)c1-c1cc([N+](=O)[O-])c2[nH]c(=O)n([C@@H](C)c3ccccc3)c2c1 [compound 172, (S)-6-(3,5-dimethylisoxazol-4-yl)-4-nitro-1-(1-phenylethyl)-1H-benzo[d]imidazol-2(3H)-one] | – |
| ≤ 300 nM | ≤ 300 nM | ≤ 300 nM | CCNc1nc2c(N)cc(-c3c(C)noc3C)cc2n1C(C)c1ccccc1 (stereo not drawn) [compound 134, 6-(3,5-dimethylisoxazol-4-yl)-N2-ethyl-1-(1-phenylethyl)-1H-benzo[d]imidazole-2,4-diamine] | – |
| 300 to 3000 nM | 300 to 3000 nM | 300 to 3000 nM | Cc1noc(C)c1-c1cnc2[nH]c(=O)n([C@@H](C)c3ccccc3)c2c1 [compound 219, (S)-6-(3,5-dimethylisoxazol-4-yl)-1-(1-phenylethyl)-1H-imidazo[4,5-b]pyridin-2(3H)-one] | – |
| – | ≤ 300 nM | 3000 to 30000 nM | Cc1noc(C)c1-c1cc(Br)c2nc(C)n(CCc3ccccc3)c2c1 [compound 186, 4-(4-bromo-2-methyl-1-phenethyl-1H-benzo[d]imidazol-6-yl)-3,5-dimethylisoxazole] | Not active |
| 300 to 3000 nM | ≤ 300 nM | 300 to 3000 nM | COc1ccc(CNc2nc3ncc(-c4c(C)noc4C)cc3n2Cc2ccccc2)cc1 [compound 205, 1-benzyl-6-(3,5-dimethylisoxazol-4-yl)-N-(4-methoxybenzyl)-1H-imidazo[4,5-b]pyridin-2-amine] | – |
| 300 to 3000 nM | ≤ 300 nM | 300 to 3000 nM | Cc1noc(C)c1-c1cc(F)c2[nH]c(=O)n(Cc3ccccc3)c2c1 [compound 163, 1-benzyl-6-(3,5-dimethylisoxazol-4-yl)-4-fluoro-1H-benzo[d]imidazol-2(3H)-one] | – |
| 300 to 3000 nM | ≤ 300 nM | ≤ 300 nM | Cc1noc(C)c1-c1cc([N+](=O)[O-])c2nc(C)n([C@@H](C)c3ccccc3)c2c1 [compound 125, (S)-3,5-dimethyl-4-(2-methyl-4-nitro-1-(1-phenylethyl)-1H-benzo[d]imidazol-6-yl)isoxazole] | – |
| 300 to 3000 nM | ≤ 300 nM | 300 to 3000 nM | COc1ccc(Cn2c(=O)[nH]c3c(N)cc(-c4c(C)noc4C)cc32)cc1 [compound 104, 4-amino-6-(3,5-dimethylisoxazol-4-yl)-1-(4-methoxybenzyl)-1H-benzo[d]imidazol-2(3H)-one] | – |
| ≤ 300 nM | ≤ 300 nM | ≤ 300 nM | Cc1noc(C)c1-c1cnc2nc(NCc3ccccn3)n(Cc3ccccc3)c2c1 [compound 194, 1-benzyl-6-(3,5-dimethylisoxazol-4-yl)-N-(pyridin-2-ylmethyl)-1H-imidazo[4,5-b]pyridin-2-amine] | – |
| 300 to 3000 nM | ≤ 300 nM | ≤ 300 nM | Cc1noc(C)c1-c1cc(N)c2[nH]c(=O)n(Cc3ccc(Cl)cc3)c2c1 [compound 90, 4-amino-1-(4-chlorobenzyl)-6-(3,5-dimethylisoxazol-4-yl)-1H-benzo[d]imidazol-2(3H)-one] | – |
